Measured values as given in PubChem BioAssay (NCI).
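96-well plates; 48 h exposure; 5 concentrations. Endpoints by linear interpolation between flanking doses. Not reached: highest tested concentration assigned. GI50: concentration for 50% inhibition of growth. TGI is the concentration that stops growth completely.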

How the values were obtained:
Experiment in all cases: NCI tumour cell line growth inhibition, 48 h
[1] = tested on: 786-0 renal
[2] = tested on: A498 renal
[3] = tested on: A549 NSCLC
[4] = tested on: ACHN renal
[5] = tested on: BT-549 breast
[6] = tested on: CAKI-1 renal
[7] = tested on: CCRF-CEM leukemia
[8] = tested on: COLO 205 colon
[9] = tested on: DU-145 prostate
[10] = tested on: EKVX NSCLC
[11] = tested on: HCC-2998 colon
[12] = tested on: HCT-116 colon
[13] = tested on: HCT-15 colon
[14] = tested on: HL-60(TB) leukemia
[15] = tested on: HOP-62 NSCLC
[16] = tested on: HOP-92 NSCLC
[17] = tested on: HS 578T breast
[18] = tested on: HT29 colon
[19] = tested on: IGROV1 ovarian
[20] = tested on: K-562 leukemia
[21] = tested on: KM12 colon
[22] = tested on: LOX IMVI melanoma
[23] = tested on: M14 melanoma
[24] = tested on: MALME-3M melanoma
[25] = tested on: MCF7 breast
[26] = tested on: MDA-MB-231 breast
[27] = tested on: MDA-MB-435
[28] = tested on: NCI-H226 lung
[29] = tested on: NCI-H23 lung
[30] = tested on: NCI-H460 lung
[31] = tested on: NCI-H522 lung
[32] = tested on: NCI/ADR-RES ovarian
[33] = tested on: OVCAR-3 ovarian
[34] = tested on: OVCAR-4 ovarian
[35] = tested on: OVCAR-5 ovarian
[36] = tested on: OVCAR-8 ovarian
[37] = tested on: PC-3 prostate
[38] = tested on: RPMI-8226 leukemia
[39] = tested on: RXF 393 renal
[40] = tested on: SF-268 CNS
[41] = tested on: SF-295 CNS
[42] = tested on: SF-539 CNS
[43] = tested on: SK-MEL-28 melanoma
[44] = tested on: SK-MEL-5 melanoma
[45] = tested on: SK-OV-3 ovarian
[46] = tested on: SN12C renal
[47] = tested on: SNB-19 CNS
[48] = tested on: SNB-75 CNS
[49] = tested on: SR leukemia
[50] = tested on: SW-620 colon
[51] = tested on: T-47D breast
[52] = tested on: TK-10 renal
[53] = tested on: U251 CNS
[54] = tested on: UACC-257 melanoma
[55] = tested on: UACC-62 melanoma
[56] = tested on: UO-31 renal
[57] = tested on: MDA-N
[58] = tested on: MOLT-4 leukemia
[59] = tested on: SK-MEL-2 melanoma

SMILES: O=C1/C(=C/c2ccc(O)cc2)CCC1CNc1ccccc1 (stereo unspecified)
- TGI [1]: 18.9 µM
- TGI [2]: 31.9 µM
- TGI [3]: 34.8 µM
- TGI [4]: 24.8 µM
- TGI [5]: 27.6 µM
- TGI [6]: 26.5 µM
- TGI [7]: 4.54 µM
- TGI [8]: 16.1 µM
- TGI [9]: 16.9 µM
- TGI [10]: 33.6 µM
- TGI [11]: 35.8 µM
- TGI [12]: 17.5 µM
- TGI [13]: 13.9 µM
- TGI [14]: 4.91 µM
- TGI [15]: 36.3 µM
- TGI [16]: 27.9 µM
- TGI [17]: 57.6 µM
- TGI [18]: 27.7 µM
- TGI [19]: 25.3 µM
- TGI [20]: 4 µM
- TGI [21]: 22.7 µM
- TGI [22]: 22.2 µM
- TGI [23]: 28.1 µM
- TGI [24]: 30.6 µM
- TGI [25]: 10.2 µM
- TGI [26]: 30.9 µM
- TGI [27]: 36.2 µM
- TGI [28]: 37.9 µM
- TGI [29]: 30.4 µM
- TGI [30]: 50.9 µM
- TGI [31]: 6.95 µM
- TGI [32]: 37.1 µM
- TGI [33]: 28.4 µM
- TGI [34]: 33.3 µM
- TGI [35]: 31.6 µM
- TGI [36]: 29.9 µM
- TGI [37]: 23.7 µM
- TGI [38]: 5.12 µM
- TGI [39]: 35.9 µM
- TGI [40]: 28.2 µM
- TGI [41]: 29.5 µM
- TGI [42]: 29.8 µM
- TGI [43]: 29.9 µM
- TGI [44]: 30.6 µM
- TGI [45]: 43.9 µM
- TGI [46]: 29.2 µM
- TGI [47]: 30.1 µM
- TGI [48]: 41.2 µM
- TGI [49]: 4.22 µM
- TGI [50]: 7.11 µM
- TGI [51]: 55.2 µM
- TGI [52]: 24.3 µM
- TGI [53]: 30.3 µM
- TGI [54]: 30.6 µM
- TGI [55]: 28.7 µM
- TGI [56]: 29 µM

SMILES: O=c1oc2cccnc2n1CCCCN1CCN(c2ccccc2)CC1
- TGI [1]: > 100 µM
- TGI [2]: > 100 µM
- TGI [3]: > 100 µM
- TGI [4]: > 100 µM
- TGI [6]: > 100 µM
- TGI [7]: > 100 µM
- TGI [9]: > 100 µM
- TGI [10]: > 100 µM
- TGI [11]: > 100 µM
- TGI [12]: > 100 µM
- TGI [13]: > 100 µM
- TGI [14]: > 100 µM
- TGI [15]: > 100 µM
- TGI [16]: > 100 µM
- TGI [17]: > 100 µM
- TGI [18]: > 100 µM
- TGI [19]: > 100 µM
- TGI [20]: > 100 µM
- TGI [22]: > 100 µM
- TGI [23]: > 100 µM
- TGI [24]: > 100 µM
- TGI [25]: > 100 µM
- TGI [26]: > 100 µM
- TGI [27]: > 100 µM
- TGI [57]: > 100000 nM
- TGI [58]: > 100 µM
- TGI [29]: > 100 µM
- TGI [30]: > 100 µM
- TGI [31]: > 100 µM
- TGI [32]: > 100 µM
- TGI [33]: > 100 µM
- TGI [34]: > 100 µM
- TGI [35]: > 100 µM
- TGI [36]: > 100 µM
- TGI [37]: > 100 µM
- TGI [38]: > 100 µM
- TGI [39]: > 100 µM
- TGI [40]: > 100 µM
- TGI [41]: > 100 µM
- TGI [42]: > 100 µM
- TGI [59]: > 100 µM
- TGI [43]: > 100 µM
- TGI [44]: > 100 µM
- TGI [45]: > 100 µM
- TGI [47]: > 100 µM
- TGI [49]: > 100 µM
- TGI [50]: > 100 µM
- TGI [51]: > 100 µM
- TGI [52]: > 100 µM
- TGI [53]: > 100 µM
- TGI [54]: > 100 µM
- TGI [56]: > 100 µM

SMILES: COc1cc2cc(C(=O)N3CC(CCl)c4c3cc(NC(=O)C(C)Nc3c([N+](=O)[O-])cc(C(=O)NCCN(C)C)cc3[N+](=O)[O-])c3ccccc43)[nH]c2c(OC)c1OC (stereo unspecified)
- TGI [1]: 0.235 µM
- TGI [2]: 0.992 µM
- TGI [3]: 0.362 µM
- TGI [5]: 0.649 µM
- TGI [8]: 0.192 µM
- TGI [9]: 1.03 µM
- TGI [10]: 1.01 µM
- TGI [11]: 0.16 µM
- TGI [12]: 0.572 µM
- TGI [13]: 2.5 µM
- TGI [15]: 0.283 µM
- TGI [16]: 0.0297 µM
- TGI [18]: 0.419 µM
- TGI [21]: 0.457 µM
- TGI [23]: 0.374 µM
- TGI [24]: 0.27 µM
- TGI [25]: 0.127 µM
- TGI [26]: 0.342 µM
- TGI [27]: 0.356 µM
- TGI [57]: 371 nM
- TGI [28]: 0.34 µM
- TGI [30]: 0.178 µM
- TGI [31]: 0.279 µM
- TGI [33]: 0.433 µM
- TGI [34]: 0.551 µM
- TGI [35]: 0.544 µM
- TGI [37]: 1.16 µM
- TGI [59]: 0.159 µM
- TGI [44]: 0.232 µM
- TGI [45]: 2.23 µM
- TGI [46]: 0.643 µM
- TGI [47]: 0.909 µM
- TGI [50]: 0.285 µM
- TGI [52]: 1.44 µM
- TGI [54]: 0.359 µM
- TGI [56]: 3.35 µM

SMILES: Cc1nn(CNc2ccccc2C(F)(F)F)c(=S)n1/N=C/c1ccc(F)cc1
- GI50 [1]: > 100 µM
- TGI [1]: > 100 µM
- GI50 [2]: > 100 µM
- TGI [2]: > 100 µM
- GI50 [3]: > 100 µM
- TGI [3]: > 100 µM
- GI50 [4]: > 100 µM
- TGI [4]: > 100 µM
- GI50 [5]: > 100 µM
- TGI [5]: > 100 µM
- GI50 [6]: > 100 µM
- TGI [6]: > 100 µM
- GI50 [7]: 14.2 µM
- TGI [7]: > 100 µM
- GI50 [8]: 53.2 µM
- TGI [8]: > 100 µM
- GI50 [9]: > 100 µM
- TGI [9]: > 100 µM
- GI50 [10]: 42 µM
- TGI [10]: > 100 µM
- GI50 [11]: > 100 µM
- TGI [11]: > 100 µM
- GI50 [12]: 91.2 µM
- TGI [12]: > 100 µM
- GI50 [13]: 53.7 µM
- TGI [13]: > 100 µM
- GI50 [14]: 91.9 µM
- TGI [14]: > 100 µM
- GI50 [15]: > 100 µM
- TGI [15]: > 100 µM
- GI50 [16]: 34.8 µM
- TGI [16]: > 100 µM
- GI50 [17]: 72.3 µM
- TGI [17]: > 100 µM
- GI50 [18]: 42.1 µM
- TGI [18]: > 100 µM
- GI50 [19]: > 100 µM
- TGI [19]: > 100 µM
- GI50 [20]: 89.4 µM
- TGI [20]: > 100 µM
- GI50 [21]: > 100 µM
- TGI [21]: > 100 µM
- GI50 [22]: > 100 µM
- TGI [22]: > 100 µM
- GI50 [23]: 87.9 µM
- TGI [23]: > 100 µM
- GI50 [24]: > 100 µM
- TGI [24]: > 100 µM
- GI50 [25]: 60.3 µM
- TGI [25]: > 100 µM
- GI50 [26]: 25.9 µM
- TGI [26]: > 100 µM
- GI50 [27]: > 100 µM
- TGI [27]: > 100 µM
- GI50 [58]: 46.6 µM
- TGI [58]: > 100 µM
- GI50 [28]: 43.7 µM
- TGI [28]: > 100 µM
- GI50 [29]: > 100 µM
- TGI [29]: > 100 µM
- GI50 [30]: > 100 µM
- TGI [30]: > 100 µM
- GI50 [31]: > 100 µM
- TGI [31]: > 100 µM
- GI50 [32]: > 100 µM
- TGI [32]: > 100 µM
- GI50 [33]: > 100 µM
- TGI [33]: > 100 µM
- GI50 [34]: 23.3 µM
- TGI [34]: 70.6 µM
- GI50 [35]: 73 µM
- TGI [35]: > 100 µM
- GI50 [36]: > 100 µM
- TGI [36]: > 100 µM
- GI50 [37]: 97.9 µM
- TGI [37]: > 100 µM
- GI50 [38]: 48.5 µM
- TGI [38]: > 100 µM
- GI50 [39]: > 100 µM
- TGI [39]: > 100 µM
- GI50 [40]: > 100 µM
- TGI [40]: > 100 µM
- GI50 [41]: > 100 µM
- TGI [41]: > 100 µM
- GI50 [42]: > 100 µM
- TGI [42]: > 100 µM
- GI50 [59]: > 100 µM
- TGI [59]: > 100 µM
- GI50 [43]: 50 µM
- TGI [43]: > 100 µM
- GI50 [44]: > 100 µM
- TGI [44]: > 100 µM
- GI50 [45]: > 100 µM
- TGI [45]: > 100 µM
- GI50 [47]: 94 µM
- TGI [47]: > 100 µM
- GI50 [48]: 29.5 µM
- TGI [48]: 91.3 µM
- GI50 [49]: 12.3 µM
- TGI [49]: 51.6 µM
- GI50 [50]: > 100 µM
- TGI [50]: > 100 µM
- GI50 [51]: > 100 µM
- TGI [51]: > 100 µM
- GI50 [52]: 53.8 µM
- TGI [52]: > 100 µM
- GI50 [54]: 59.2 µM
- TGI [54]: > 100 µM
- GI50 [55]: 35.4 µM
- TGI [55]: > 100 µM
- GI50 [56]: > 100 µM
- TGI [56]: > 100 µM
